Results from US20140357706A1, “Stearate Compounds” (THE UAB RESEARCH FOUNDATION, priority 2011, published 2014).

Experiments:
[1] = system: 3T3L1 cells; assay: 3T3L1 cell differentiation (oil red O staining); format: cell-based, mouse; conditions: 50 μM during differentiation
Experimental: 3T3L1 mouse fibroblast cells (ATCC, CL-173™) were maintained according to the manufacture's protocol, in Dulbecco's modified eagle's medium (DMEM) containing 10% Fetal Bovine Serum and antibiotics (M1 medium). Adipocyte differentiation was performed according to standard procedures (42). Briefly, the 3T3L1 fibroblasts were seeded at 30% confluence and allowed to grow to near 100% confluence. On the day after reaching maximum confluence, conversion was induced by replacing the M1 medium with M1 medium containing insulin (5 μg/ml), dexamethasone (0.25 μM), and 3-isobutyl-1-methyl-xanthine (0.5 mM). After 2 days, the cells were changed to M1 medium with insulin (5 μg/ml) for an additional 2 days. […]
50 μM of stearate, oleate or linoleate was used to treat 3T3L1 cells as this concentration is centered within the normal range for non-esterified stearate in the plasma of humans. […] The concentration of stearate in the solution was detected by use of a NEFA C kit. […]
Cellular lipids were stained with oil red O. Briefly, identical numbers of 3T3L1 cells were placed in 6-well plates, cultured and converted to adipocytes as described above. […] 200 cells were counted under the microscope in each sample, and the percentage of converted adipocytes was calculated. […] The oil red O was then eluted with 1 ml 100% isopropanol, and the OD was measured at 520 nm in a spectrophotometer.

[2] = system: Hs578T human breast cancer cells; assay: Flow cytometry cell cycle analysis; format: cell-based; conditions: 50 μM stearate
Experimental: Hs578T human breast cancer cells (ATCC, HTB-126) were maintained according to the manufacturer's recommendations, in Dulbecco's modified Eagle's medium containing 10% fetal bovine serum, […] insulin and penicillin/streptomycin.
The concentration of stearate used to treat the Hs578T cells was 50 μM. When EGF was used, the concentration was 1 nM EGF. Before the treatment with stearate or EGF, cells were first starved for 24-48 hours. Stearate was loaded onto fatty acid-free bovine serum albumin (BSA) according to the method reported by Spector et al. (13); briefly, stearate (0.5 g) was dissolved in chloroform (100 ml) and mixed well with 10 g diatomaceous earth in a 1 liter flask. The mixture was stirred and dried under nitrogen until powder. BSA is a physiological carrier of fatty acids and was used to avoid the introduction of organic solvents to solutions coming into contact with cells. […] The concentration of stearate in the solution was detected with the NEFA C Kit from Wako Chemicals GmbH (Neuss, Germany). […]
To analyze cellular DNA content, confluent Hs578t cells were harvested, fixed in ice-cold 70% ethanol for 30 min and then resuspended in citrate buffer (4 mM sodium citrate) containing 50 μg/ml of propidium iodide and 100 μg/ml of RNase. […] Data were analyzed using the ModFit LT workshop program (BD Immunocytometry System, San Jose, Calif.).

[3] = system: p21^CIP1/WAF1, p27^KIP1, pCdk2; assay: Immunoblot of p21CIP1/WAF1, p27KIP1 and phosphorylated Cdk2 in Hs578T cells; format: cell-based, human; conditions: 50 μM stearate, Hs578T
Experimental: The concentration of stearate used to treat the Hs578T cells was 50 μM. When EGF was used, the concentration was 1 nM EGF. Before the treatment with stearate or EGF, cells were first starved for 24-48 hours. Stearate was loaded onto fatty acid-free bovine serum albumin (BSA) according to the method reported by Spector et al. (13); briefly, stearate (0.5 g) was dissolved in chloroform (100 ml) and mixed well with 10 g diatomaceous earth in a 1 liter flask. The mixture was stirred and dried under nitrogen until powder. BSA is a physiological carrier of fatty acids and was used to avoid the introduction of organic solvents to solutions coming into contact with cells. Fatty acid-free BSA (1 g) was dissolved in 100 ml with Dulbecco's modified Eagle's medium without phenol red and mixed with 3 g of the stearate/diatomaceous earth mixture with stirring for 45 min. The stearate/BSA solution was filtered through a 0.45 μm filter, and adjusted to pH 7.4. The concentration of stearate in the solution was detected with the NEFA C Kit from Wako Chemicals GmbH (Neuss, Germany). All experimental data on Hs578T cells were controlled using fatty acid-free BSA control solutions that were put through the same preparatory procedure described for the stearate/BSA solution except for the fact that no fatty acid was added.
Cells were treated as described above, and lysed with lysis buffer. The supernatants of the lysates or the immunoprecipitates were loaded with Laemmli sample buffer on 10% sodium dodecyl sulfate-polyacrylamide gel electrophoresis gels after boiling at 100° C. for 5 min. Proteins were then transferred to a polyvinylidene difluoride membrane. The membranes were blocked overnight at 4° C. with blocking buffer containing 5% non-fat dried milk powder in Tris-buffered saline-T (25 mM Tris, 140 mM NaCl, 2.7 mM KCl, 0.05% Tween-20, pH 8.0), incubated with primary antibody in blocking buffer at room temperature for 1 hour and incubated with antirabbit or antimouse antibodies labeled with horseradish peroxidase (1:5000) in blocking buffer under the same conditions, and then washed three times for 10 min in Tris-buffered saline-T. The polyvinylidene difluoride membranes were washed and developed using enhanced chemiluminescence reagents.

[4] = system: visceral adipocytes from ApoE knockout mice; assay: Expression of cIAP2, Bcl-2 and Bax in visceral adipocyte cultures; format: cell-based; conditions: 50 μM fatty acid; vs no additional fatty acid
Experimental: It was hypothesized that stearate induces apoptosis in visceral adipocytes by at least one of the following mechanisms: inhibition of cIAP2, activation of Bcl-2, and activation of BAX. […] Six cultures were exposed to each fatty acid or no fatty acid. The expression of cIAP2, Bcl-2, and Bax was measured in each culture. […] By decreasing levels of the cIAP2 and/or Bcl-2 polypeptides and increasing expression of the Bax polypeptide, stearate administration may lead to an increase in cellular apoptotic activity (such as but not limited to the visceral fat tissues). Without wishing to be bound by any given hypothetical model, it is proposed that this reduction in cIAP2 expression and this increase in Bax expression (independently or in combination) is responsible for the relative decrease in visceral fat tissue that is observed when animals are given a diet that is high in stearate.

Question: What does the source list for `CCCCCCCCCCCCCCCCCC(=O)O` [stearate, Stearic acid]?
Answer: Oil red O eluted, OD value [1]: no difference; Percentage of differentiated adipocytes ([1]; vs control): no significant difference; Cells in the S phase [2]: reduced; Number of cells in G0/G1 and G2/M ([2]; also in complete media and with EGF): increased; Protein level of p21^CIP1/WAF1 [3]: increases; Protein level of p27^KIP1 [3]: increases; pCdk2 [3]: decreased; Expression of Bax [4]: increases; Expression of cIAP2 [4]: reduces
